Among the data in US11926612B2, “Heterocyclic apelin receptor (APJ) agonists and uses thereof” (Research Triangle Institute, priority 2016, dated 2024) are EC50 values, retold here.

The assay concerns the target T1, apelin receptor (APJ) (Homo sapiens, UniProt P35414).
T1 sequence (P35414 1-380): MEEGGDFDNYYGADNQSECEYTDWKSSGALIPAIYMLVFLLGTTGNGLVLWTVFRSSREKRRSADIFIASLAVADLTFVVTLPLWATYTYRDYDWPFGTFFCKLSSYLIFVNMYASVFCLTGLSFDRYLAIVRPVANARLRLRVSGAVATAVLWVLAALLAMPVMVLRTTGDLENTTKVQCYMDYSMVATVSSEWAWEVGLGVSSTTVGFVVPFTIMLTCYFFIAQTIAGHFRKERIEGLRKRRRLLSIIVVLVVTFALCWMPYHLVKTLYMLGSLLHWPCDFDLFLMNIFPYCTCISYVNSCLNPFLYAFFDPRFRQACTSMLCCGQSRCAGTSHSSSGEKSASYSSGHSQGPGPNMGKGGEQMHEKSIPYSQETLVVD
As to the kind of experiment: in vitro activity as apelin agonists (methods of Giddings et al.; Apelin-13 positive control). The settings on record: apelin agonist activity, average; read-out: EC50 (nM) Ave. The assay is classed as cell-based. From the text:
The compounds above were studied for their in vitro activity as apelin agonists using the methods described by Giddings et al. Giddings et al., 2010 Int J High Thro Screen. 1:39-47, the contents of which are hereby incorporated by reference in its entirety. The methods described in Giddings et al. were used as described and Apelin-13 was a positive control.
Consider `O=C(C[C@H](CCN1CCCCC1)NC(=O)c1nc(C2CCCC2)n(-c2ccccc2C(F)(F)F)n1)NC1CCC1` [compound 444, (3S)-N-cyclobutyl-3-({5-cyclopentyl-1-[2-(trifluoromethyl)phenyl]-1H-1,2,4-triazol-3-yl}formamido)-5-(piperidin-1-yl)pentanamide], for which the EC50 worked out at 40 nM.
Regarding `O=C(C[C@H](CCN1CCCCC1)NC(=O)c1nc(-c2ccccc2C(F)(F)F)n(C2CCCC2)n1)NC1CCC1` [compound 446, (3S)-N-cyclobutyl-3-({1-cyclopentyl-5-[2-(trifluoromethyl)phenyl]-1H-1,2,4-triazol-3-yl}formamido)-5-(piperidin-1-yl)pentanamide], the EC50 came to 310 nM.
Consider `O=C(C[C@H](CCN1CCCC(F)(F)C1)NC(=O)c1nc(-c2ccccc2C(F)(F)F)n(C2CCCC2)n1)NC1CCC1` [compound 453, (3S)-N-cyclobutyl-3-({1-cyclopentyl-5-[2-(trifluoromethyl)phenyl]-1H-1,2,4-triazol-3-yl}formamido)-5-(3,3-difluoropiperidin-1-yl)pentanamide], for which the concentration giving a half-maximal response (EC50) is 9 nM.
In the case of `O=C(C[C@H](CCN1CCCC(F)(F)C1)NC(=O)c1nc(C2CCCC2)n(-c2ccccc2C(F)(F)F)n1)NC1CCC1` [compound 454, (3S)-N-cyclobutyl-3-({5-cyclopentyl-1-[2-(trifluoromethyl)phenyl]-1H-1,2,4-triazol-3-yl}formamido)-5-(3,3-difluoropiperidin-1-yl)pentanamide], the EC50 amounted to 8.3 nM.
Regarding `CN(C(=O)C[C@H](CCN1CCCC(F)(F)C1)NC(=O)c1nc(C2CCCC2)n(-c2ccccc2C(F)(F)F)n1)c1nccs1` [compound 455, (3S)-3-({5-cyclopentyl-1-[2-(trifluoromethyl)phenyl]-1H-1,2,4-triazol-3-yl}formamido)-5-(3,3-difluoropiperidin-1-yl)-N-methyl-N-(1,3-thiazol-2-yl)pentanamide], the EC50 amounted to 22 nM.
For the compound `CN(C(=O)C[C@H](CCN1CCCC(F)(F)C1)NC(=O)c1nc(-c2ccccc2C(F)(F)F)n(C2CCCC2)n1)c1nccs1` [compound 456, (3S)-3-({1-cyclopentyl-5-[2-(trifluoromethyl)phenyl]-1H-1,2,4-triazol-3-yl}formamido)-5-(3,3-difluoropiperidin-1-yl)-N-methyl-N-(1,3-thiazol-2-yl)pentanamide], the EC50 worked out at 48 nM.
On to `O=C(O)C[C@H](CCN1CCCC(F)(F)C1)NC(=O)c1nc(-c2ccccc2C(F)(F)F)n(C2CCCC2)n1` [compound 462, (3S)-3-({1-cyclopentyl-5-[2-(trifluoromethyl)phenyl]-1H-1,2,4-triazol-3-yl}formamido)-5-(3,3-difluoropiperidin-1-yl)pentanoic acid], for which the EC50 amounted to 384 nM.
With `CN(C(=O)C[C@H](CCN1CCCC(F)(F)C1)NC(=O)c1cn(-c2ccccc2C(F)(F)F)c(C2CCCC2)n1)c1nccs1` [compound 473, (3S)-3-({2-cyclopentyl-1-[2-(trifluoromethyl)phenyl]-1H-imidazol-4-yl}formamido)-5-(3,3-difluoropiperidin-1-yl)-N-methyl-N-(1,3-thiazol-2-yl)pentanamide], the EC50 was found to be 46 nM.
Consider `CN(C(=O)C[C@H](CCN1CCCC(F)(F)C1)N(C)C(=O)c1nc(C2CCCC2)n(-c2ccccc2C(F)(F)F)n1)c1nccs1` [compound 474, (3S)-3-(1-{5-cyclopentyl-1-[2-(trifluoromethyl)phenyl]-1H-1,2,4-triazol-3-yl}-N-methylformamido)-5-(3,3-difluoropiperidin-1-yl)-N-methyl-N-(1,3-thiazol-2-yl)pentanamide], for which the EC50 worked out at 588 nM.
As to `CC(C)Cc1c(-c2ccccc2Cl)nc(C(=O)N[C@@H](CCN2CCCC(F)(F)C2)CC(=O)O)n1C` [compound 476, (3S)-3-{[4-(2-chlorophenyl)-1-methyl-5-(2-methylpropyl)-1H-imidazol-2-yl]formamido}-5-(3,3-difluoropiperidin-1-yl)pentanoic acid], the EC50 is more than 10000 nM.
Take `CC(C)Cc1c(-c2ccccc2Cl)nc(C(=O)N[C@@H](CCN2CCCC(F)(F)C2)CC(=O)N(C)c2nccs2)n1C` [compound 477, (3S)-3-{[4-(2-chlorophenyl)-1-methyl-5-(2-methylpropyl)-1H-imidazol-2-yl]formamido}-5-(3,3-difluoropiperidin-1-yl)-N-methyl-N-(1,3-thiazol-2-yl)pentanamide]: the EC50 is more than 10000 nM.
On to `CC(C)Cc1c(-c2ccccc2Cl)nc(C(=O)N[C@@H](CCN2CCCC(F)(F)C2)CC(=O)NC2CCC2)n1C` [compound 478, (3S)-3-{[4-(2-chlorophenyl)-1-methyl-5-(2-methylpropyl)-1H-imidazol-2-yl]formamido}-N-cyclobutyl-5-(3,3-difluoropiperidin-1-yl)pentanamide], for which the EC50 is more than 10000 nM.
Consider `O=C(O)C[C@H](CCN1CCCC(F)(F)C1)NC(=O)c1nc(-c2ncccc2C(F)(F)F)n(C2CCCC2)n1` [compound 512, (3S)-3-({1-cyclopentyl-5-[3-(trifluoromethyl)pyridin-2-yl]-1H-1,2,4-triazol-3-yl}formamido)-5-(3,3-difluoropiperidin-1-yl)pentanoic acid], for which the EC50 stood at 152 nM.
Turning to `O=C(O)C[C@H](CCN1CCCC(F)(F)C1)NC(=O)c1nc(C2CCCC2)n(-c2cccnc2C(F)(F)F)n1` [compound 513, (3S)-3-({5-cyclopentyl-1-[2-(trifluoromethyl)pyridin-3-yl]-1H-1,2,4-triazol-3-yl}formamido)-5-(3,3-difluoropiperidin-1-yl)pentanoic acid], the EC50 was more than 10000 nM.
With `O=C(C[C@H](CCN1CCCC(F)(F)C1)NC(=O)c1nc(C2CCCC2)n(-c2cccnc2C(F)(F)F)n1)NC1CCC1` [compound 531, (3S)-N-cyclobutyl-3-({5-cyclopentyl-1-[2-(trifluoromethyl)pyridin-3-yl]-1H-1,2,4-triazol-3-yl}formamido)-5-(3,3-difluoropiperidin-1-yl)pentanamide], the EC50 was 323 nM.
In the case of `O=C(C[C@H](CCN1CCCC(F)(F)C1)NC(=O)c1nc(-c2cccnc2C(F)(F)F)n(C2CCCC2)n1)NC1CCC1` [compound 532, (3S)-N-cyclobutyl-3-({1-cyclopentyl-5-[2-(trifluoromethyl)pyridin-3-yl]-1H-1,2,4-triazol-3-yl}formamido)-5-(3,3-difluoropiperidin-1-yl)pentanamide], the EC50 stood at 2540 nM.
Regarding `COCCN(C)C(=O)[C@H](CCc1ccccc1)NC(=O)c1nc(C2CCCC2)n(-c2ccccc2C(F)(F)F)n1` [compound 543, (2S)-2-({5-cyclopentyl-1-[2-(trifluoromethyl)phenyl]-1H-1,2,4-triazol-3-yl}formamido)-N-(2-methoxyethyl)-N-methyl-4-phenylbutanamide], the EC50 was 754 nM.
For the compound `COCCN(C)C(=O)[C@H](CCc1ccccc1)NC(=O)c1nc(-c2ccccc2C(F)(F)F)n(C2CCCC2)n1` [compound 569, (2S)-2-({1-cyclopentyl-5-[2-(trifluoromethyl)phenyl]-1H-1,2,4-triazol-3-yl}formamido)-N-(2-methoxyethyl)-N-methyl-4-phenylbutanamide], the EC50 is more than 10000 nM.
Regarding `O=C(O)C[C@H](CCN1CCC(F)(F)C1)NC(=O)c1nc(C2CCCC2)n(-c2ccccc2C(F)(F)F)n1` [compound 586, (3S)-3-({5-cyclopentyl-1-[2-(trifluoromethyl)phenyl]-1H-1,2,4-triazol-3-yl}formamido)-5-(3,3-difluoropyrrolidin-1-yl)pentanoic acid], the EC50 was 74 nM.
With `O=C(O)C[C@H](CCN1CCCC(F)(F)C1)NC(=O)c1cn(-c2ccccc2C(F)(F)F)c(C2CCCC2)n1` [compound 617, (3S)-3-({2-cyclopentyl-1-[2-(trifluoromethyl)phenyl]-1H-imidazol-4-yl}formamido)-5-(3,3-difluoropiperidin-1-yl)pentanoic acid], the EC50 turned out to be 13 nM.
With `O=C(N[C@@H](CCN1CCCC(F)(F)C1)Cc1nnn[nH]1)c1cn(-c2ccccc2C(F)(F)F)c(C2CCCC2)n1` [compound 620], the EC50 was determined as 8 nM.

The term EC50 denotes the concentration at which the effect is half-maximal.
